Read-outs that look alike come from different tables or passages of the source.
Target: T1, SIRT1 (Homo sapiens, UniProt Q96EB6)
T1 sequence (Q96EB6 1-747): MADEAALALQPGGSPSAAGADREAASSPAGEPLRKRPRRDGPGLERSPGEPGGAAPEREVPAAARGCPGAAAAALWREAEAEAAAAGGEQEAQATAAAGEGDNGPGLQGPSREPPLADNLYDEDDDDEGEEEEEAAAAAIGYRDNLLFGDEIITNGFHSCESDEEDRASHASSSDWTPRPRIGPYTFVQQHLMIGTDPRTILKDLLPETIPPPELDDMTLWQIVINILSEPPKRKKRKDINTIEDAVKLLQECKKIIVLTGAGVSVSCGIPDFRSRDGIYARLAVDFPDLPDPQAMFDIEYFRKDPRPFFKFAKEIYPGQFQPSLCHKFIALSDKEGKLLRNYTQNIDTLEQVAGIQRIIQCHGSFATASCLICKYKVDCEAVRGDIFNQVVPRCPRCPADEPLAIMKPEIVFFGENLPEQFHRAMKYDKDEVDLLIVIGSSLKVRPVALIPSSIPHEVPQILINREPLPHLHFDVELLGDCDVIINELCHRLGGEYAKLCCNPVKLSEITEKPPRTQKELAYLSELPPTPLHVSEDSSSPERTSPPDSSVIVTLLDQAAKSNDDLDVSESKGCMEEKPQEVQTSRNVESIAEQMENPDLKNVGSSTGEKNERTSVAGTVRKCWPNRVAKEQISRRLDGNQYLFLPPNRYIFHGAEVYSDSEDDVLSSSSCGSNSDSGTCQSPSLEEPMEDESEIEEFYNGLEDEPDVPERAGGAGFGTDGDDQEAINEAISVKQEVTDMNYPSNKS
Test: TAMRA based mass spectrometry assay of SIRT1 activity
Type: biochemical
Conditions: for TAMRA EC1.5 (μM) / TAMRA EC1.5: concentration giving 150% activation of SIRT1; for Emax: percent maximum fold activation, read-out: TAMRA % Fold Act
Method in brief: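 Deacetylation of a biotinylated, TAMRA-tagged p53-based peptide (0.5 μM) by 10 nM His-tagged SIRT1 with 120 μM βNAD+, 25 °C for 25 min, pH 8 Tris-acetate buffer, across a compound concentration range. Quenched by formic acid and read by mass spec as product peptide or OAADPR; activity relative to DMSO reactions, nicotinamide defining maximal inhibition.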

Structure (SMILES)	TAMRA EC1.5 (μM) (TAMRA assay)	Emax (TAMRA assay) [%]	TAMRA EC1.5 (TAMRA peptide substrate)	Emax (TAMRA peptide substrate) [%]
Cc1scnc1C(=O)Nc1cnc2c(C)c(C)c(-c3ccccc3Cl)nn12 [Compound 385]	A (EC1.5<1 μM)	≥ 350		
Cc1cc(C)nc(C(=O)Nc2cnc3c(C)c(C)c(-c4ccccc4Cl)nn23)n1 [Compound 388]	A (EC1.5<1 μM)	≥ 350		
O=C(Nc1cccc(CN2CC[C@@H](F)C2)n1)c1cnc2ccc(-c3ccccc3C(F)(F)F)nn12 [Compound 390]	A (EC1.5<1 μM)	≥ 350		
O=C(Nc1cccc(CN2CCC(F)(F)CC2)n1)c1cnc2ccc(-c3ccccc3C(F)(F)F)nn12 [Compound 391]	A (EC1.5<1 μM)	≥ 350		
Cc1ccc(C(=O)Nc2cnc3ccc(-c4ccccc4C(F)(F)F)nn23)c(C)n1 [Compound 394]	B (EC1.5 1-25 μM)	< 350		
Cc1ccc(NC(=O)c2cnc3ccc(-c4ccccc4OC(F)(F)F)nn23)nn1 [Compound 396]	A (EC1.5<1 μM)	≥ 350		
Cc1cnc(NC(=O)c2cnc3ccc(-c4ccccc4OC(F)(F)F)nn23)s1 [Compound 397]			A (EC1.5<1 μM)	< 350
Cc1cc(C)nc(NC(=O)c2cnc3ccc(-c4ccccc4OC(F)(F)F)nn23)n1 [Compound 399]			B (EC1.5 1-25 μM)	≥ 350
CC1(COc2cccc(NC(=O)c3cnc4ccc(-c5ccccc5OC(F)(F)F)nn34)n2)COC1 [Compound 400]			A (EC1.5<1 μM)	≥ 350
Cc1c(-c2ccccc2Cl)nn2c(NC(=O)c3cccc(OCC(O)CO)n3)cnc2c1C (stereo not shown) [Compound 402]			A (EC1.5<1 μM)	≥ 350
Cc1scnc1C(=O)Nc1cnc2c(C)c(C)c(-c3ccccc3C(F)(F)F)nn12 [Compound 403]			A (EC1.5<1 μM)	≥ 350
Cc1nc2ccc(-c3ccccc3C(F)(F)F)nn2c1NC(=O)c1cscn1 [Compound 404]			B (EC1.5 1-25 μM)	< 350
Cc1nc(C(=O)Nc2c(C)nc3ccc(-c4ccccc4C(F)(F)F)nn23)cs1 [Compound 405]			B (EC1.5 1-25 μM)	≥ 350
Cc1cc(-c2ccccc2C(F)(F)F)nn2c(NC(=O)c3cnccn3)cnc12 [Compound 408]			A (EC1.5<1 μM)	≥ 350
Cc1cc(-c2ccccc2C(F)(F)F)nn2c(NC(=O)c3ccncn3)cnc12 [Compound 409]			A (EC1.5<1 μM)	≥ 350
Cc1cc(-c2ccccc2C(F)(F)F)nn2c(NC(=O)c3ncccn3)cnc12 [Compound 410]			A (EC1.5<1 μM)	≥ 350
Cc1cc(-c2ccccc2C(F)(F)F)nn2c(NC(=O)c3cscn3)cnc12 [Compound 411]			A (EC1.5<1 μM)	≥ 350
Cc1cc(-c2ccccc2C(F)(F)F)nn2c(NC(=O)c3nccs3)cnc12 [Compound 414]			A (EC1.5<1 μM)	≥ 350
Cc1cccc(NC(=O)c2cnc3ccc(-c4cccc(OCC(O)CO)c4)nn23)n1 (stereo not shown) [Compound 416]			A (EC1.5<1 μM)	≥ 350
Cc1cc(C)nc(NC(=O)c2cnc3ccc(-c4cccc(OCC(O)CO)c4)nn23)c1 (stereo not shown) [Compound 417]			A (EC1.5<1 μM)	≥ 350
Cc1cc(C)nc(C(=O)Nc2cnc3c(C)c(C)c(-c4ccccc4C(F)(F)F)nn23)n1 [Compound 420]			A (EC1.5<1 μM)	≥ 350

Structure (SMILES)	TAMRA EC1.5 (μM) (TAMRA assay)	Emax (TAMRA assay) [%]	TAMRA EC1.5 (TAMRA peptide substrate)	Emax (TAMRA peptide substrate) [%]
Cc1c(-c2ccccc2C(F)(F)F)nn2c(NC(=O)c3cccc(OCC(O)CO)n3)cnc2c1C (stereo not shown) [Compound 422, 6-(2,3-dihydroxypropoxy)-N-(7,8-dimethyl-6-(2-(trifluoromethyl)phenyl)imidazo[1,2-b]pyridazin-3-yl)picolinamide]			A (EC1.5<1 μM)	≥ 350
O=C(Nc1cccc(OC(CO)CO)n1)c1cnc2ccc(-c3ccccc3C(F)(F)F)nn12 [Compound 423, N-(6-((1,3-dihydroxypropan-2-yl)oxy)pyridin-2-yl)-6-(2-(trifluoromethyl)phenyl)imidazo[1,2-b]pyridazine-3-carboxamide]			A (EC1.5<1 μM)	≥ 350
Cc1cc(-c2ccccc2C(F)(F)F)nn2c(NC(=O)c3cccc(N4CCC4)n3)cnc12 [Compound 426]			A (EC1.5<1 μM)	≥ 350
Cc1cc(C)nc(NC(=O)c2c(C)nc3c(C)cc(-c4ccccc4C(F)(F)F)nn23)c1 [Compound 429]			A (EC1.5<1 μM)	≥ 350
Cc1cc(NC(=O)c2c(C)nc3c(C)cc(-c4ccccc4C(F)(F)F)nn23)cc(C)n1 [Compound 432]			A (EC1.5<1 μM)	≥ 350
Cc1cc2ncc(NC(=O)c3cscn3)n2nc1-c1ccccc1C(F)(F)F [Compound 434]			A (EC1.5<1 μM)	≥ 350
Cc1cc2ncc(NC(=O)c3cccc(N4CCOCC4)n3)n2nc1-c1ccccc1C(F)(F)F [Compound 435]			A (EC1.5<1 μM)	≥ 350
O=C(Nc1cnc2ccc(-c3ccccc3C(F)(F)F)nn12)c1cccc(-n2cnnc2)n1 [Compound 438]			A (EC1.5<1 μM)	≥ 350
O=C(Nc1cnc2ccc(-c3ccccc3C(F)(F)F)nn12)c1ncc(F)cc1F [Compound 440]			A (EC1.5<1 μM)	≥ 350
Cc1cc2ncc(NC(=O)c3ccccn3)n2nc1-c1ccccc1C(F)(F)F [Compound 441, N-(7-methyl-6-(2-(trifluoromethyl)phenyl)imidazo[1,2-b]pyridazin-3-yl)picolinamide]			A (EC1.5<1 μM)	≥ 350
Cc1cc2ncc(NC(=O)c3ncccn3)n2nc1-c1ccccc1C(F)(F)F [Compound 444]			A (EC1.5<1 μM)	≥ 350
Cc1cc2ncc(NC(=O)c3nccs3)n2nc1-c1ccccc1C(F)(F)F [Compound 446]			A (EC1.5<1 μM)	≥ 350
Cc1cnc(C(=O)Nc2cnc3cc(C)c(-c4ccccc4C(F)(F)F)nn23)s1 [Compound 447]			A (EC1.5<1 μM)	≥ 350
O=C(Nc1ccccn1)c1ncn2ccc(-c3ccccc3C(F)(F)F)nc12 [Compound 450]			B (EC1.5 1-25 μM)	≥ 350
O=C(Nc1ccncn1)c1ncn2ccc(-c3ccccc3C(F)(F)F)nc12 [Compound 452]			A (EC1.5<1 μM)	≥ 350
O=C(Nc1ncccn1)c1ncn2ccc(-c3ccccc3C(F)(F)F)nc12 [Compound 453]			B (EC1.5 1-25 μM)	≥ 350
O=C(Nc1ncn2ccc(-c3ccccc3C(F)(F)F)nc12)c1cccc(N2CCOCC2)n1 [Compound 456]			A (EC1.5<1 μM)	≥ 350
Cc1cccc(NC(=O)c2c(C)nc3c(C)cc(-c4ccccc4C(F)(F)F)nn23)n1 [Compound 458]			A (EC1.5<1 μM)	≥ 350
Cc1cc(NC(=O)c2c(C)nc3c(C)cc(-c4ccccc4C(F)(F)F)nn23)ccn1 [Compound 459]			A (EC1.5<1 μM)	≥ 350
Cc1nc2ccc(-c3ccccc3C(F)(F)F)nn2c1C(=O)Nc1cccnn1 [Compound 462, 2-methyl-N-(pyridazin-3-yl)-6-(2-(trifluoromethyl)phenyl)imidazo[1,2-b]pyridazine-3-carboxamide]			A (EC1.5<1 μM)	≥ 350

From patent publication US9957271B2, “Substituted bicyclic aza-heterocycles and analogues as sirtuin modulators” (GlaxoSmithKline, LLC, priority 2012, dated 2018)
